Measured values reported in patent US20240009174A1, “METHODS FOR DISRUPTING MITOCHONDRIAL UNFOLDED PROTEIN RESPONSE” (Health Research, Inc., priority 2020, published 2024).

Legend:
[1] = system: 22RV1 (AR positive) xenografts; test: 22RV1 xenograft in SCID mice; type: in vivo; conditions: 60 mg/kg bw
Protocol: FIG. 8. Pharmacological inhibition of HSP60-ClpP inhibit oncogenic signaling and PCa tumor growth in vivo. (A) LNCaP, PC-3 and 22RV1 cells were treated with DCEM1 and analyzed for c-Myc and EZH2 protein expression after 24 hours of treatment. (B) LNCaP, 22RV1 and VCaP cells were treated with DCEM1 and analyzed for AR and PSA protein expression after 24 hours of treatment. (C-D) 22RV1 cells (1×10^6 cells) were mixed with matrigel (50:50 v/v) and injected into each flank of SCID mice and treated with DCEM1 (60 mg/kg bw) through IP route twice weekly and tumors were harvested, photographed (C) and weighed (D) at 30 days. (E) DEVDase activity were analyzed in 22RV1 xenograft tumor tissue following DCEM1 treatment and represented as fold change compared to control. (F) 22RV1 xenograft tissue were sectioned and expression of ki67, c-Myc and EZH2 proteins were analyzed by Immunohistochemistry as described in material and methods. (G-H) PC-3 cells (1×10^6 cells) were mixed with matrigel (50:50 v/v) and injected into each flank of SCID mice and treated with DCEM1 (60 mg/kg bw) through IP route twice weekly and tumors were harvested, photographed (G) and weighed (H) at 35 days. (I) DEVDase activity were analyzed in PC-3 xenograft tumor tissue following DCEM1 treatment and represented as fold change compared to control. (J) PC-3 xenograft tumor tissue were fixed and sections were used for in situ PLA to analyze HSP60-ClpP interaction in these tissue samples. […] All animals were sacrificed at 16 weeks of age and prostate tissue and tumors were harvested, whole cell lysate were prepared and analyzed for HSP60 and ClpP expression (N); c-Myc and EZH2 expression (0) and SYP and CK 8/18 expression (P) by immunoblotting. […]
Ablation of HSP60-ClpP interaction by DCEM1 downregulates c-Myc, EZH2 and AR as well as inhibits tumor growth in vivo. […] The effect of DCEM1 on 22RV1 (AR positive) and PC-3 (AR negative) xenografts growth in SCID mice was analyzed. […]

LNCaP and PC-3 cells = test: Mitochondrial membrane potential (mitoMP); type: cell-based
Protocol: FIG. 7. Pharmacological inhibition of HSP60-ClpP interaction induces metabolic stress in PCa cells. (A) LNCaP and PC-3 cells were pre-treated with either rotenone or antimycin-A followed by DCEM1 treatment and mitochondrial ROS was analyzed as described in material and methods (data represented as fold change compared to control). In (A), the bars in each series from left to right are control, DCEM1, Rot+DCEM1, Anti A+DCEM1, Rot, and Anti A (B) ClpP protein was over-expressed in LNCaP and PC-3 cells followed by DCEM1 treatment and mitochondrial ROS was analyzed as described in material and methods (Data represented as fold change compared to control). […] (C) ClpP protein was over-expressed in LNCaP and PC-3 cells followed by DCEM1 treatment and level of poly-ubiquitinated protein was analyzed by western blotting. (D) ClpP protein was over-expressed in LNCaP and PC-3 cells followed by DCEM1 treatment and DEVDase activity was analyzed as described in material and methods (Data represented as fold change compared to control). […] (E) Mitochondrial membrane potential (mitoMP) was analyzed in LNCaP and PC-3 cells treated with DCEM1 as described in material and methods (Data represented as fold change compared to control). […] (F) ATP level was analyzed in LNCaP and PC-3 cells treated with DCEM1 as described in material and methods (Data represented as fold change compared to control). […]

CCOc1cc(CNCc2nc3ccccc3[nH]2)ccc1OCc1cccs1 [DCEM1]
caspase-3 (DEVDase) activity in 22RV1 xenograft tumors ([1]; IP, twice weekly): induced
tumor volume and weight, 22RV1 xenografts ([1]; IP, twice weekly, 30 days): effectively inhibited
expression of Ki67, c-Myc, EZH2 and AR in 22RV1 xenograft ([1]; immunohistochemistry): downregulated expression of Ki67, c-Myc, EZH2 and AR
mitochondrial membrane potential (LNCaP and PC-3 cells): robustly depolarized mitochondrial membrane
